# Source: US11447466B2, “Substituted indole compounds useful as inhibitors of TLR7/8/9” (BRISTOL-MYERS SQUIBB COMPANY, priority 2017, dated 2022)
# Legend:
# Assay type in all cases: cell-based
# human TLR7 = biological target: T1, human TLR7 (Homo sapiens, UniProt Q9NYK1); experiment: TLR7 inhibition reporter assay (HEK-Blue SEAP reporter, gardiquimod stimulation); conditions: HEK-Blue cells overexpressing human TLR7, SEAP reporter, gardiquimod 7.5 μM, 22 hour incubation
# T1 construct: host or cells: HEK-Blue cells
# T1 sequence (Q9NYK1 27-1049): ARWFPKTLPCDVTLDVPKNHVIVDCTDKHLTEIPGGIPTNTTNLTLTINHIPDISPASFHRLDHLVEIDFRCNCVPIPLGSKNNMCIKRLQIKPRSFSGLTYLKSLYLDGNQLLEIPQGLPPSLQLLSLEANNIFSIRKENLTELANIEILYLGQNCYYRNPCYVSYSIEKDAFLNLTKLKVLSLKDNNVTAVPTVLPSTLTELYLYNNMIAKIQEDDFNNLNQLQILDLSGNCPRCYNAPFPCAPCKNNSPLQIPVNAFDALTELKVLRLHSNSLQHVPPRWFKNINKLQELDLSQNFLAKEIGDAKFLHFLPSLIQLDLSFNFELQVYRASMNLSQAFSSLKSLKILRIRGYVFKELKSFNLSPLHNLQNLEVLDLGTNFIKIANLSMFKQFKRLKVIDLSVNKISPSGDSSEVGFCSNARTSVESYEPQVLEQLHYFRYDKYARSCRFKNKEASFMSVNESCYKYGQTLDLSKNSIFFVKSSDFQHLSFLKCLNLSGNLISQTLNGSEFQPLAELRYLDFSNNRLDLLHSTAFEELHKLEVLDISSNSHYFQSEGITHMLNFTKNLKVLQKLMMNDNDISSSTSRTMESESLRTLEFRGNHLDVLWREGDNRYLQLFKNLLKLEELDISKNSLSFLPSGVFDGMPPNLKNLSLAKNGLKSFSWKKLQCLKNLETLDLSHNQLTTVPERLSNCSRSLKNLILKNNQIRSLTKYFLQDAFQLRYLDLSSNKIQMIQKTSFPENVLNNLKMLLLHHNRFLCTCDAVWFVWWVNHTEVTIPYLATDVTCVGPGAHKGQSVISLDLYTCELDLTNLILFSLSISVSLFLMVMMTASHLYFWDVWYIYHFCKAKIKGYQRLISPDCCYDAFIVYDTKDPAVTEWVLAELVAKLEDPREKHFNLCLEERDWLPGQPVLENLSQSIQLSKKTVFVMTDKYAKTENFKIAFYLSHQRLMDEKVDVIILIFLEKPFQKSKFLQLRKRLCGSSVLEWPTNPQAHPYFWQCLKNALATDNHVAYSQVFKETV
# Outline: (§1)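 HEK-Blue cells overexpressing human TLR7, TLR8 or TLR9 carry a SEAP reporter driven by NF-κB/AP-1 sites. Compounds (0.05 nM–50 μM) were preincubated 30 min at room temperature, then cells were stimulated with gardiquimod 7.5 μM (TLR7), R848 15.9 μM (TLR8) or ODN2006 5 nM (TLR9) for 22 h at 37 °C.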
# human TLR9 = biological target: T2, human TLR9 (Homo sapiens, UniProt Q9NR96); experiment: TLR9 inhibition reporter assay (HEK-Blue SEAP reporter, ODN2006 stimulation); conditions: HEK-Blue cells overexpressing human TLR9, SEAP reporter, ODN2006 5 nM, 22 hour incubation
# T2 construct: host or cells: HEK-Blue cells
# T2 sequence (Q9NR96 26-1032): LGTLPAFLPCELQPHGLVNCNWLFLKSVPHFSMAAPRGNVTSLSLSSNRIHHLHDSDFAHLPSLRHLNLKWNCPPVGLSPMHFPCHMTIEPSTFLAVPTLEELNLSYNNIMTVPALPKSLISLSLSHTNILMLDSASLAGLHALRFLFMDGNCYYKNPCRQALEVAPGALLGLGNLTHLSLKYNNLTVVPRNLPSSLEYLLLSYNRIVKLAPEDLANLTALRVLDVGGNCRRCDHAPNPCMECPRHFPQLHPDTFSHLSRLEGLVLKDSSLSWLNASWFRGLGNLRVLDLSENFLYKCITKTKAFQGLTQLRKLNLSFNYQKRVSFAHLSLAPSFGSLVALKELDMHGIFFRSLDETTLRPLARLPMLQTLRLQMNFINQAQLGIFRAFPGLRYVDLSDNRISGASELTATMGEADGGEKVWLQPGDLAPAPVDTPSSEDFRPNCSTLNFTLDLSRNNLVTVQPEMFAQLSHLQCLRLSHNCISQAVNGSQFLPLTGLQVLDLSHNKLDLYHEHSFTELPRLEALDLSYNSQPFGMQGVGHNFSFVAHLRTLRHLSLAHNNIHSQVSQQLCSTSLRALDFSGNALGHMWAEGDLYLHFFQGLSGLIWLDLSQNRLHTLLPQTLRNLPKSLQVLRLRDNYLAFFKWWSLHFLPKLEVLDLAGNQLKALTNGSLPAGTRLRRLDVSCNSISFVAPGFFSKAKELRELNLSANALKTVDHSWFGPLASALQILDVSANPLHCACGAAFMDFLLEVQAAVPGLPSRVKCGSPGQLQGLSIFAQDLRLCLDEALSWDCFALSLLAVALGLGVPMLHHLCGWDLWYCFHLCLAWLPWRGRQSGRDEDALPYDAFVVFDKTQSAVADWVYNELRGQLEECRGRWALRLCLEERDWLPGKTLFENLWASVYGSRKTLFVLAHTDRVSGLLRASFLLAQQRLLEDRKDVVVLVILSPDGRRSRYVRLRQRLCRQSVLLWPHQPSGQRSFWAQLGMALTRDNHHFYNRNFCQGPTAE
# Outline: as §1
# human TLR8 = biological target: T3, human TLR8 (Homo sapiens, UniProt Q9NR97); experiment: TLR8 inhibition reporter assay (HEK-Blue SEAP reporter, R848 stimulation); conditions: HEK-Blue cells overexpressing human TLR8, SEAP reporter, R848 15.9 μM, 22 hour incubation
# T3 construct: host or cells: HEK-Blue cells
# T3 sequence (Q9NR97 27-1041): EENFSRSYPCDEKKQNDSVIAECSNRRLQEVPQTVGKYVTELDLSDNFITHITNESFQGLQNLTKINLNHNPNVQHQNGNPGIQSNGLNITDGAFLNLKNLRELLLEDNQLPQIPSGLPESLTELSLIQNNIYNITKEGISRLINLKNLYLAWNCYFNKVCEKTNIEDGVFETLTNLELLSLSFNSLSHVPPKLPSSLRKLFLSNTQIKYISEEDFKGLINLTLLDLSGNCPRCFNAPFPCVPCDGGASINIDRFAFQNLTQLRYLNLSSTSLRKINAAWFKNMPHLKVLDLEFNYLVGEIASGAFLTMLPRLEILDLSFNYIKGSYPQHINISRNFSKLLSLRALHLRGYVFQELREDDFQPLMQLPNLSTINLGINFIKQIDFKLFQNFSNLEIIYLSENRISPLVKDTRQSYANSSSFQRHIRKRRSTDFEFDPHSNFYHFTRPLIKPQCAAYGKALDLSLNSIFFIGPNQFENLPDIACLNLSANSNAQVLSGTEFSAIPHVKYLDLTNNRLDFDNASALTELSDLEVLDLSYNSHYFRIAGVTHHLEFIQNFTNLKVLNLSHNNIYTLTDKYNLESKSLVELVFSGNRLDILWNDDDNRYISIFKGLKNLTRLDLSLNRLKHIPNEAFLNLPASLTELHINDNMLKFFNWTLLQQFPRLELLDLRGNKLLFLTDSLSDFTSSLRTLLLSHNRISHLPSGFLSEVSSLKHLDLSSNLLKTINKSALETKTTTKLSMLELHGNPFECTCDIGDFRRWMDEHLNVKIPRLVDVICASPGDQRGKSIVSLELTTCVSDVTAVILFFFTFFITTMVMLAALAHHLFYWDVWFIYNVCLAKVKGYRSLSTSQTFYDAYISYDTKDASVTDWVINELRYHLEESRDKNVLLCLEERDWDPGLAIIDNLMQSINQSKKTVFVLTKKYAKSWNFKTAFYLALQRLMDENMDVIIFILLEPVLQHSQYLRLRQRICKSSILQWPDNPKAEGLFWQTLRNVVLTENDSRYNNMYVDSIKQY
# Outline: as §1
SMILES,IC50 (human TLR7) [nM],IC50 (human TLR9) [nM],IC50 (human TLR8) [nM]
"Cc1cc(-c2[nH]c3ccc(C4CCNCC4)cc3c2C(C)C)cn(C2CCOC2)c1=O (stereo not drawn) [Example 42, 5-(3-isopropyl-5-(piperidin-4-yl)-1H-indol-2-yl)-3-methyl-1-(tetrahydrofuran-3-yl)pyridin-2(1H)-one]",40.9,6710,134
"CC(C)c1c(-c2cc(N)c(=O)n(C)c2)[nH]c2ccc(C3CCNCC3)cc12 [Example 9, 3-amino-5-(3-isopropyl-5-(piperidin-4-yl)-1H-indol-2-yl)-1-methylpyridin-2(1H)-one]",50.8,879,11.5
"Cc1cc(=O)n(C)nc1-c1[nH]c2ccc(C3CCNCC3)cc2c1C(C)C [Example 10, 6-(3-isopropyl-5-(piperidin-4-yl)-1H-indol-2-yl)-2,5-dimethylpyridazin-3(2H)-one]",330,1540,38.4
"Cc1cc(-c2[nH]c3ccc(C4CCN(CC(=O)N(C)C)CC4)cc3c2C(C)C)nn(C)c1=O [Example 116, 2-(4-(2-(1,5-dimethyl-6-oxo-1,6-dihydropyridazin-3-yl)-3-isopropyl-1H-indol-5-yl)piperidin-1-yl)-N,N-dimethylacetamide]",29.6,6100,23.8
"Cc1cc(-c2[nH]c3ccc(C4CCN(CC5(O)CCOCC5)CC4)cc3c2C(C)C)c(C)n(C)c1=O [Example 320, 5-(5-(1-((4-hydroxytetrahydro-2H-pyran-4-yl)methyl)piperidin-4-yl)-3-isopropyl-1H-indol-2-yl)-1,3,6-trimethylpyridin-2(1H)-one]",14.2,2310,1.7

# Stronger by IC50 (human TLR7), values ahead:
IC50 (human TLR7) [nM],IC50 (human TLR9) [nM],IC50 (human TLR8) [nM],SMILES
12,1950,13.6,"CCn1cc(-c2[nH]c3ccc(C4CCN(CC(=O)N(C)C)CC4)cc3c2C(C)C)c(C)c(C)c1=O [Example 136, 2-(4-(2-(1-ethyl-4,5-dimethyl-6-oxo-1,6-dihydropyridin-3-yl)-3-isopropyl-1H-indol-5-yl)piperidin-1-yl)-N,N-dimethylacetamide]"
10.2,3090,1.9,"Cc1cc(-c2[nH]c3ccc(C4CCN(CC(C)(C)O)CC4)cc3c2C(C)C)c(C)n(C)c1=O [Example 316, 5-(5-(1-(2-hydroxy-2-methylpropyl)piperidin-4-yl)-3-isopropyl-1H-indol-2-yl)-1,3,6-trimethylpyridin-2(1H)-one]"
9.5,799,11.9,"Cc1cc(-c2[nH]c3ccc(C4CCN(CCC(N)=O)CC4)cc3c2C(C)C)cn(C)c1=O [Example 82, 3-(4-(2-(1,5-dimethyl-6-oxo-1,6-dihydropyridin-3-yl)-3-isopropyl-1H-indol-5-yl)piperidin-1-yl)propanamide]"
5.9,5280,12.3,"Cc1cc(-c2[nH]c3ccc(C4CCN(C(=O)[C@@H]5C[C@@H](O)CN5C)CC4)cc3c2C(C)C)cn(C)c1=O [Example 289, 5-(5-(1-((2S,4R)-4-hydroxy-1-methylpyrrolidine-2-carbonyl)piperidin-4-yl)-3-isopropyl-1H-indol-2-yl)-1,3-dimethylpyridin-2(1H)-one]"
5.4,5810,5.3,"Cc1c(-c2[nH]c3ccc(C4CCN(C5CCOCC5)CC4)cc3c2C(C)C)cn(C)c(=O)c1Cl [Example 239, 3-chloro-5-(3-isopropyl-5-(1-(tetrahydro-2H-pyran-4-yl)piperidin-4-yl)-1H-indol-2-yl)-1,4-dimethylpyridin-2(1H)-one]"
1.8,1070,17.2,"CCn1cc(-c2[nH]c3ccc(C4CCNCC4)cc3c2C(C)C)cc(Cl)c1=O [Example 32, 3-chloro-1-ethyl-5-(3-isopropyl-5-(piperidin-4-yl)-1H-indol-2-yl) pyridin-2(1H)-one]"
